Results as given in EP0452067A2, “Oligosaccharide compounds and preparation thereof” (GENZYME CORPORATION, priority 1990, dated 1991).

How the values were obtained:
[1] = tested on: α-amylase; experiment: Determination of kinetic and binding values of α-amylase substrates; type: biochemical; settings: for Km: 50 mM PIPES pH 7.0, 50 mM NaCl, 5 mM CaCl₂, glucoamylase and maltase, 27°C, corrected for contaminating unblocked substrate
Method: All reactions were carried out in 50 mM PIPES buffer (pH 7.0) containing 50 mM NaCl, 5 mM CaCl₂, 10 units glucoamylase and 25 units maltase at 27°C. Each substrate concentration was run in duplicate and at least eight concentrations were examined for each substrate. Data from the reaction progress curves were fit to the Michaelis-Menten equation using Marquardt analysis. The Km values were corrected for contaminating unblocked substrate. The values V and K for the G₇ substrates are the average of two experiments. The error in the kinetic parameters from each experiment was less than 5% from the average reported.

[2] = tested on: pancreatic and salivary α-amylase; experiment: Cleavage pattern, both amylases; type: biochemical; settings: range over pancreatic and salivary α-amylase
[3] = biological target: T1, Pancreatic Amylase (Homo sapiens, UniProt P04746); experiment: Cleavage pattern of substrates on hydrolysis with pancreatic amylase
T1 sequence (P04746 16-511): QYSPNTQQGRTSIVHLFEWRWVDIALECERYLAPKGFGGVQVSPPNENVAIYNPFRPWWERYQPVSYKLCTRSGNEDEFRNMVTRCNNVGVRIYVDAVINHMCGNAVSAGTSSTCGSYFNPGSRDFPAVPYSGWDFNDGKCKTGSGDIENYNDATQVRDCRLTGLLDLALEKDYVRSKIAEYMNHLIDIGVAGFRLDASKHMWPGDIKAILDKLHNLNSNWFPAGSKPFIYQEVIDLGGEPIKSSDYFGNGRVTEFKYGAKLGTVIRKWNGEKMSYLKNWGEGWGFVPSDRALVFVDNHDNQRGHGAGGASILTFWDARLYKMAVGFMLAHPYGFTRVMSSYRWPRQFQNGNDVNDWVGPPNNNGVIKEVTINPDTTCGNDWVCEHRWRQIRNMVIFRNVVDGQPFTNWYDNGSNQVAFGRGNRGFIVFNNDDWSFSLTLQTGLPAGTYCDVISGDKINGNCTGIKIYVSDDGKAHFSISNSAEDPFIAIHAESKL

| Structure (SMILES) | Km [1] | cleaved between glucoses 3 and 4 [2] | Cleavage Position (% of total) G 1/2 [3] | Cleavage Position (% of total) G 2/3 [3] | Cleavage Position (% of total) G 3/4 [3] | Total Hydrolysis (%) [3] | cleaved between glucoses 2 and 3 [2] | Cleavage Position (% of total) G 5/6 [3] | V/K greater than that of the Bz-G₅-PNP ([1]; relative to Bz-G₅-PNP) | cleaved between glucose units 1-2 [2] | Vmax, faster than the Bz-G₇-PNP ([1]; relative to Bz-G₇-PNP) | Cleavage Position (% of total) G 4/5 [3] |
| --- | --- | --- | --- | --- | --- | --- | --- | --- | --- | --- | --- | --- |
| O=[N+]([O-])c1ccc(O[C@H]2O[C@H](CO)[C@@H](O[C@H]3O[C@H](CO)[C@@H](O[C@H]4O[C@H](CO)[C@@H](O[C@H]5O[C@H](CO)[C@@H](O[C@H]6O[C@@H]7COC(c8ccccc8)O[C@H]7[C@H](O)[C@H]6O)[C@H](O)[C@H]5O)[C@H](O)[C@H]4O)[C@H](O)[C@H]3O)[C@H](O)[C@H]2O)cc1 (stereo partly drawn) [Substrate 4, 4,6-0-benzylidene-4-nitrophenyl-α-D-maltopentaoside] | 183 µM | 78 - 84% | 2.5 % of total | 19.4 % of total | 78.1 % of total | 42.9% |  |  |  |  |  |  |
| O=[N+]([O-])c1ccc(O[C@H]2O[C@H](CO)[C@@H](O[C@H]3O[C@H](CO)[C@@H](O[C@H]4O[C@H](CO)[C@@H](O[C@H]5O[C@H](CO)[C@@H](O[C@H]6O[C@H](CO)[C@@H](O[C@H]7O[C@H](CO)[C@@H](O[C@H]8O[C@@H]9COC(c%10ccccc%10)O[C@H]9[C@H](O)[C@H]8O)[C@H](O)[C@H]7O)[C@H](O)[C@H]6O)[C@H](O)[C@H]5O)[C@H](O)[C@H]4O)[C@H](O)[C@H]3O)[C@H](O)[C@H]2O)cc1 (stereo partly drawn) [Substrate 2, 4,6-0-benzylidene-4-nitrophenyl-α-D-maltoheptaoside] | 92 µM |  | 4.0 % of total | 63.1 % of total | 18.9 % of total | 15.1% | 63 - 74% | 13.6 % of total |  |  |  |  |
| CC(C)(C)[Si](C)(C)OC[C@H]1O[C@H](O[C@H]2[C@H](O)[C@@H](O)[C@@H](O[C@H]3[C@H](O)[C@@H](O)[C@@H](O[C@H]4[C@H](O)[C@@H](O)[C@@H](O[C@H]5[C@H](O)[C@@H](O)[C@@H](Oc6ccc([N+](=O)[O-])cc6)O[C@@H]5CO)O[C@@H]4CO)O[C@@H]3CO)O[C@@H]2CO)[C@H](O)[C@@H](O)[C@@H]1O [Substrate 3, 6-0-t-butyldimethylsilyl-4-nitrophenyl-α-D-maltopentaoside] | 87 µM |  | 59.4 % of total | 40.6 % of total |  | 31.6% | 40 - 60% |  | 19% | 40 - 60% |  |  |
| CC(C)(C)[Si](C)(C)OC[C@H]1O[C@H](O[C@H]2[C@H](O)[C@@H](O)[C@@H](O[C@H]3[C@H](O)[C@@H](O)[C@@H](O[C@H]4[C@H](O)[C@@H](O)[C@@H](O[C@H]5[C@H](O)[C@@H](O)[C@@H](O[C@H]6[C@H](O)[C@@H](O)[C@@H](O[C@H]7[C@H](O)[C@@H](O)[C@@H](Oc8ccc([N+](=O)[O-])cc8)O[C@@H]7CO)O[C@@H]6CO)O[C@@H]5CO)O[C@@H]4CO)O[C@@H]3CO)O[C@@H]2CO)[C@H](O)[C@@H](O)[C@@H]1O [Substrate 1, 6-0-t-butyldimethylsilyl-4-nitrophenyl-α-D-maltoheptaoside] |  | 66 - 67% | 1.1 % of total | 13.3 % of total | 65.6 % of total | 69.9% |  |  |  |  | 46% | 19.9 % of total |
